For experiment [1], the system named is TNF-α. The experiment in a line: In vivo model of LPS-induced excessive secretion of TNF-α in mice. Particulars: male BALB/c mice, substance p.o. 30 minutes prior to i.p. LPS 25 μg/animal, plasma TNF-α two hours later; dose not given. The method, then: (§1) % inhibition was calculated by the following equation: % inhibition=(1−sample PGE-2 concentration/positive control PGE-2 concentration)*100 In Vivo Model of LPS-Induced Exccessive Secretion of TNF-α in Mice
TNF-α secretion in mice was induced according to the previously described method (Badger A. M. Et al., J. of Pharmac. and Env. Therap. 279 1996 1453-1461). In the test, male BALB/c mice at an age of 8 to 12 weeks in groups of 6 to 10 animals were used. Animals were treated p.o. either only with the solvent (in a negative and a positive control) or with solutions of the substance 30 minutes prior to the i.p. treatment with LPS (E. coli serotype 0111:B4, Sigma) in a dose of 25 μg/animal. Two hours later the animals were euthanized by means of i.p. injection of Roumpun (Bayer) and Ketanest (Park-Davis). […] The TNF-α level in the plasma was determined by ELISA (Biosource, R&D Systems) according to the process prescribed by the manufacturer. The test sensitivity was <3 pg/mL TNF-α. The percentage inhibition of TNF-α production was calculated by the following equation: % inhibition=[1−(TS—NC)/(PC—NC)]*100

Experiment [2] has as its target T1, Human Prostaglandin-H Synthase—1 (hPGH-1) (Homo sapiens, UniProt P23219).
T1 construct: expressed in transfected cells; host or cells: COS-7 cells (ATCC), transient transfection with Lipofectamine 2000
The experiment in a line: Human prostaglandin-H synthase-1 (hPGH-1) inhibition assay in transfected COS-7 cells (PGE-2 readout). Format: cell-based. As to conditions: COS-7 cells transfected with hPGH-1, arachidonic acid 20 μM, PGE-2 measured. The method, then: (§2) The cells were grown in 10% fetal bovine serum (FBS) in DMEM medium (Invitrogen Life Technologies) at 37° C. in an atmosphere with 5% CO2 and 90% moisture. 20 000 cells/well were plated in 96 well plate (Falcon). The cells in a negative control were cultured only in the medium (NC), while the secretion of TNF-α in a positive control was stimulated by the addition of 500 pg/mL lipopolysaccharide (LPS, E. coli serotype 0111:B4, SIGMA) (PC) and the effect of the tested substances on TNF-α secretion was tested after their addition to cell cultures stimulated with LPS (TS). […] Human Prostaglandin-H Synthase—1 (hPGH-1) and Human Prostaglandin-H Synthase—2 (hPGH-2) Inhibition Assay
(§3) Genes coding hPGH-1 and hPGH-2 were amplified with PCR using Platinum pfx DNA polymerase (Invitrogen Life Technologies) from human placenta cDNA library (Stratagene). Primer sequences used for hPGH-1 are: • 5′ […] 3′ (SEQ ID NO: 1) and • 5′ […] 3′ (SEQ ID NO: 2); for hPGH-2 • 5′ […] 3′ (SEQ ID NO: 3) and • 5′ […] 3′ (SEQ ID NO: 4). PCR products were cloned into HindIII and BamHI restriction sites of pcDNA3.1 (Hygro(+) plasmid (Invitrogen Life Technologies), sequences were confirmed by sequencing.
(§4) Transfection was performed on COS-7 cells (ATCC), cells were grown in 10% foetal bovine serum (FBS) in DMEM medium (Invitrogen Life Tecnologies), 37° C. in an atmosphere with 5% CO2 and 90% moisture, to full confluency in 24 well plate (Falcon). 1 μg plasmid DNA (pcDNA Hygro 3.1 (+) containing PGH-1 or PGH-2 gene, or pcDNA Hygro 3.1 (+) for negative control samples) was combined with 1,5 μl Lipofectamine 2000 (Invitrogen Life Technologies), following manufacturer's recommendations. […] After 30 minutes supernatants were removed and PGE-2 was measured with PGE-2 assay kit (Cayman) following manufacturer's instructions.
as §1

For experiment [3], the target named is T2, Human Prostaglandin-H Synthase—2 (hPGH-2) (Homo sapiens, UniProt P35354).
T2 construct: expressed in transfected cells; host or cells: COS-7 cells (ATCC), transient transfection with Lipofectamine 2000
T2 sequence (P35354 18-604): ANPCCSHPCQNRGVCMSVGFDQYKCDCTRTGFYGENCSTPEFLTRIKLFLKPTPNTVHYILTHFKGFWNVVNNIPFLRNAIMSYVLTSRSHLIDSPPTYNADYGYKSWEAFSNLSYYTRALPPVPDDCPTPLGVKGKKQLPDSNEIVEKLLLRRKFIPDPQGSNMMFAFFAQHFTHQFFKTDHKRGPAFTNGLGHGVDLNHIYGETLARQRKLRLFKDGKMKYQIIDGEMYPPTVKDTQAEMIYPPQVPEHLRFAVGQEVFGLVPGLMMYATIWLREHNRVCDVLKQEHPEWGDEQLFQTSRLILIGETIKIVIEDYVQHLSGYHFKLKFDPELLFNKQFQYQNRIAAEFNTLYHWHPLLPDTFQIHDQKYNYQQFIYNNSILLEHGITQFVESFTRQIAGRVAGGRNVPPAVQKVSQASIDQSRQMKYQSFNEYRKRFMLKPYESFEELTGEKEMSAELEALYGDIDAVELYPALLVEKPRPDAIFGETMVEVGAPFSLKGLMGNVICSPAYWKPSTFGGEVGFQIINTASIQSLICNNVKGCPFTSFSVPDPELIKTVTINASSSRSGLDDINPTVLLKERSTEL
The experiment in a line: Human prostaglandin-H synthase-2 (hPGH-2) inhibition assay in transfected COS-7 cells (PGE-2 readout). As to conditions: COS-7 cells transfected with hPGH-2, arachidonic acid 20 μM, PGE-2 measured. Format: cell-based. Here is the method: as §2, §3, §4, §1

Experiment [4] relates to TNF-α. The experiment in a line: Determination of TNF-α secretion in LPS-stimulated mononuclear cells of human peripheral blood in vitro (ELISA). Format: cell-based. Particulars: human PBMC, LPS 1 μg/mL, 18 to 24 hours, TNF-α in supernatant by ELISA. The method, then: Determination of TNF-α and IL-1β Secretion in Mononuclear Cells of Human Peripheral Blood In Vitro
Peripheral blood mononuclear cells (PMBC) were prepared from heparinized whole blood after separation of PMBC on Ficoll-Hypaque (Amersham-Pharmacia). For the determination of TNF-α level, 3.5-5×10^4 cells were cultured in a total volume of 200 μl within a period of 18 to 24 hours on microtiter flat bottom plates (96 wells, Falcon) in RPMI 1640 medium supplemented with 10% of heat-inactivated human AB serum (Croatian Centre For Transfusion Medicine, Zagreb), 100 units/mL of penicillin, […] and 20 mM HEPES (Invitrogen Life Technologies). The cells were incubated at 37° C. in an atmosphere with 5% CO2 and 90% moisture. The cells in a negative control were cultured only in the medium (NC), while the secretion of TNF-α in a positive control was stimulated by the addition of 1 μg/mL lipopolysaccharide (LPS, E. coli serotype 0111:B4, SIGMA) (PC) and the effect of the tested substances on TNF-α secretion was tested after their addition to cell cultures stimulated with LPS (TS). […] The test sensitivity was <3 pg/mL TNF-α. The determination of IL-1β level was performed as described for TNF-α determination, only that 1×10^5 cells/well and 0.1 ng/mL of LPS were used. IL-1β level was determined by ELISA (R&D Systems). […] IC-50 was calculated using Graph Pad Prism Software. Determination of TNF-α Secretion by RAW 264.7 Cells
Background: ELISA stands for enzyme-linked immunosorbent assay.

Structures are written as SMILES. pIC50: −log10 of the molar value.

T1 sequence (P23219 24-599): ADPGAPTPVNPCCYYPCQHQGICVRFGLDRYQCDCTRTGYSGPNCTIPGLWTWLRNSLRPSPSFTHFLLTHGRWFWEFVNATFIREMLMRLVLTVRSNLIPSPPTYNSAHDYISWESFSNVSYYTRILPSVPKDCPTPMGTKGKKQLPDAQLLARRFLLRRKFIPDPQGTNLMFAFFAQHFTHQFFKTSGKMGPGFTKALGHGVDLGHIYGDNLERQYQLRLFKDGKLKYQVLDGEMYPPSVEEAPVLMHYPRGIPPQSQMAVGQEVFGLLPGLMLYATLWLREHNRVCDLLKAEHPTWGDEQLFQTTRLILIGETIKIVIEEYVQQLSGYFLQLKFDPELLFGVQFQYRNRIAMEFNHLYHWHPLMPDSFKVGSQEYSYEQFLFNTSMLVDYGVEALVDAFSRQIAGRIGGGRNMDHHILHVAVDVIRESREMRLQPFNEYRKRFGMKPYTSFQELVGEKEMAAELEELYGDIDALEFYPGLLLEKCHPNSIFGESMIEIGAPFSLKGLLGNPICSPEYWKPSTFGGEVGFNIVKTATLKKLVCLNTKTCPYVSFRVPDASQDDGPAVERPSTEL

The term pIC50 denotes the IC50 on a negative log10 scale, so that one unit is a factor of ten. Lower therefore signals a high IC50. With `CC[C@H]1OC(=O)[C@H](C)[C@@H](O)[C@H](C)[C@@H](O[C@@H]2O[C@H](C)C[C@H](N(C)C)[C@H]2O)[C@](C)(O)C[C@@H](C)CN(CCCNC(=O)Cc2c(C)n(C(=O)c3ccc(Cl)cc3)c3ccc(OC)cc23)[C@H](C)[C@@H](O)[C@]1(C)O` [Ex. 10], the “LPS induced excessive secretion of TNF-α % of inhibition” value with TNF-α [1] came to 47%. Besides, the negative logarithm of the IC50 (pIC50) in experiment [2] was less than 4.52; in experiment [3], less than 4.52; in the experiment with TNF-α [4], 5.00.
In the case of `CC[C@H]1OC(=O)[C@H](C)[C@@H](O[C@H]2C[C@@](C)(OC)[C@@H](O)[C@H](C)O2)[C@H](C)[C@@H](O[C@@H]2O[C@H](C)C[C@H](N(C)C)[C@H]2O)[C@](C)(O)C[C@@H](C)CN(CCCNC(=O)[C@@H](C)c2ccc(CC(C)C)cc2)[C@H](C)[C@@H](O)[C@]1(C)O` [Ex. 5], the “LPS induced excessive secretion of TNF-α % of inhibition” value with TNF-α [1] is given as 66%. For the same molecule, the values for the pIC50 (in experiment [2]; in experiment [3]; in the experiment on TNF-α [4]) were 5.00, 5.00 and 6.00, respectively.
In the experiment on TNF-α [4], `CC(C)Cc1ccc([C@@H](C)C(=O)O)cc1` [S-(+)-Ibuprofen, S-(+)-ibuprofen, reference compound] showed a pIC50 of less than 4.52.
Regarding `CC[C@H]1OC(=O)[C@H](C)[C@@H](O[C@H]2C[C@@](C)(OC)[C@@H](O)[C@H](C)O2)[C@H](C)[C@@H](O[C@@H]2O[C@H](C)C[C@H](N(C)C)[C@H]2O)[C@](C)(O)C[C@@H](C)CN(CCCNC(=O)Cc2c(C)n(C(=O)c3ccc(Cl)cc3)c3ccc(OC)cc23)[C@H](C)[C@@H](O)[C@]1(C)O` [Ex. 4], the “LPS induced excessive secretion of TNF-α % of inhibition” value in the experiment with TNF-α [1] was found to be 70%. The results for the negative-log IC50 (pIC50) (in experiment [2]; in experiment [3]; in the experiment on TNF-α [4]) were less than 4.52, 6.00 and 6.00, respectively.

Values taken from patent US7109176B2, “Nonsteroidal anti-inflammatory substances, compositions and methods for their use” (Pliva-Istrazivacki Institut D.o.o., priority 2002, dated 2006).
